From US7446102B2, “Antibacterial amide macrocycles IV” (priority 2004, dated 2008)
Where a name gives a salt, the structure may show the parent alone.

What was measured:
[1] = test system: S. aureus 133; experiment: Determination of the minimum inhibitory concentration (MIC), S. aureus 133; type: cell-based; details: Staphylococcus aureus, 133, read-out: MIC S. aureus 133
Procedure: (§1) Determination of the Minimum Inhibitory Concentration (MIC)
(§2) The minimum inhibitory concentration (MIC) is the minimum concentration of an antibiotic with which the growth of a test microbe is inhibited over 18-24 h. The inhibitor concentration can in these cases be determined by standard microbiological methods (see, for example, The National Committee for Clinical Laboratory Standards. Methods for dilution antimicrobial susceptibility tests for bacteria that grow aerobically; approved standard-fifth edition. NCCLS document M7-A5 [ISBN 1-56238-394-9]. NCCLS, 940 West Valley Road, Suite 1400, Wayne, Pa. 19087-1898 USA, 2000). The MIC of the compounds of the invention is determined in the liquid dilution test on the 96-well microtitre plate scale. The bacterial microbes are cultivated in a minimal medium (18.5 mM Na2HPO4, 5.7 mM KH2PO4, 9.3 mM NH4Cl, 2.8 mM MgSO4, 17.1 mM NaCl, 0.033 μg/ml thiamine hydrochloride, 1.2 μg/ml nicotinic acid, 0.003 μg/ml biotin, 1% glucose, 25 μg/ml of each proteinogenic amino acid with the exception of phenylalanine; [H.-P. Kroll; unpublished]) with the addition of 0.4% BH broth (test medium). In the case of Enterococcus facium L4001, heat-inactivated fetal calf serum (FCS; GibcoBRL, Germany) is added to the test medium in a final concentration of 10%. Overnight cultures of the test microbes are diluted to an OD578 of 0.001 (to 0.01 in the case of enterococci) in fresh test medium, and incubated 1:1 with dilutions of the test substances (1:2 dilution steps) in test medium (200 μl final volume). The cultures are incubated at 37° C. for 18-24 hours; enterococci in the presence of 5% CO2.
(§3) The lowest substance concentration in each case at which no visible bacterial growth occurred any more is defined as the MIC.
(§4) Alternative Method for Determining the Minimum Inhibitory Concentration (MIC)
(§5) The minimum inhibitory concentration (MIC) is the minimum concentration of an antibiotic with which the growth of a test microbe is inhibited over 18-24 h. The inhibitor concentration can in these cases be determined by standard microbiological methods with modified medium in an agar dilution test (see, for example, The National Committee for Clinical Laboratory Standards. Methods for dilution antimicrobial susceptibility tests for bacteria that grow aerobically; approved standard-fifth edition. NCCLS document M7-A5 [ISBN 1-56238-394-9]. NCCLS, 940 West Valley Road, Suite 1400, Wayne, Pa. 19087-1898 USA, 2000). The bacterial microbes are cultivated on 1.5% agar plates which contain 20% defibrinated horse blood. The test microbes, which are incubated overnight on Columbia blood agar plates (Becton-Dickinson), are diluted in PBS, adjusted to a microbe count of about […] and placed dropwise (1-3 μl) on test plates. The test substances comprise different dilutions of the test substances (1:2 dilution steps). The cultures are incubated at 37° C. in the presence of 5% CO2 for 18-24 hours.
(§6) The lowest substance concentration in each case at which no visible bacterial growth occurred any more is defined as the MIC and is reported in μg/ml.

[2] = test system: E. faecium L4001; experiment: Determination of the minimum inhibitory concentration (MIC), E. faecium L4001; type: cell-based; details: Enterococcus faecium, L4001, read-out: MIC E. faecium L4001
Procedure: as §1, §2, §3, §4, §5, §6

For `NC[C@H](O)C[C@@H]1NC(=O)[C@@H](N)Cc2cc(ccc2O)-c2ccc(O)c(c2)C[C@@H](C(=O)O)NC1=O` [Example 20A, 14(S)-Amino-11(S)-(3-amino-2(R)-hydroxypropyl)-5,17-dihydroxy-10,13-dioxo-9,12-diazatricyclo[14.3.1.1^2,6]henicosa-1(19),2,4,6(21),16(20),17-hexaene-8(S)-carboxylic acid dihydrochloride, reference compound], the MIC [1] was under 0.03 µg/mL and the MIC [2] was 0.5 µg/mL.
